Like-named read-outs stand apart in the source and are kept apart here. Where a SMILES comes first, the peptide text is derived from it.
Key:
[1] = cited from earlier work
[2] = Renal biomarkers or electrolyte imbalance after administration to rats (Table 7); assay type: in vivo
Description: NoNO42 was tested for effect on various renal biomarkers or electrolyte imbalance in comparison with nerinetide after administration to rats as shown in Table 7.

plasmin = plasmin (Homo sapiens, UniProt P00747); assay: in vitro; settings: isolated enzyme plasmin
Chain of plasmin (P00747 581-810 limits assumed, species assumed): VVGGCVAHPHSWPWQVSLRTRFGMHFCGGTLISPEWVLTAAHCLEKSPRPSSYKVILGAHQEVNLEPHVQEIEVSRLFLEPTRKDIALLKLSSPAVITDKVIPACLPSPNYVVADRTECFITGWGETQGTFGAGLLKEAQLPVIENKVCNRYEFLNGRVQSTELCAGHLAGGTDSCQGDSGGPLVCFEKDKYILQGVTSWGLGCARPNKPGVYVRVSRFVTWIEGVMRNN
Chain of plasmin (P00747 97-580 partner limits assumed, species assumed): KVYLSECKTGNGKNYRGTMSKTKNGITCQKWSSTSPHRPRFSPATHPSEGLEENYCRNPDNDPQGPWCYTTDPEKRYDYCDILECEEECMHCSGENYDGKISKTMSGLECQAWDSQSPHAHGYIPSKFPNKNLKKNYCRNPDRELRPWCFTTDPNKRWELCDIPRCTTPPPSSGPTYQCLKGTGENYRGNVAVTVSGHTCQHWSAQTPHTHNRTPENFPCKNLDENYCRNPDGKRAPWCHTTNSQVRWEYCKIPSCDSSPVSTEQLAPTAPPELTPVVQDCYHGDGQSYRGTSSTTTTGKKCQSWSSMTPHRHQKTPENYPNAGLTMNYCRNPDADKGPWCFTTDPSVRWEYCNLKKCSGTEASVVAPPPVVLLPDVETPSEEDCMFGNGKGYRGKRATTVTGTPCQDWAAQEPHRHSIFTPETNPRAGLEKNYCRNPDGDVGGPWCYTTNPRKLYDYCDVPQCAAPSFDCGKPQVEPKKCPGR

[3] = rat, in vivo
Description: Blood plasma samples were collected before injection and at 10, 15, 20, 30, 45, 60 min post-dose. Each point represents the mean (±SD) of three animals per group.

[4] = rat, in vivo; for Weight: iv

Structure (SMILES): N[C@@H](Cc1ccc(O)c(O)c1)C(=O)O [Levodopa]
- half-life [1]: 1.5 h

Structure (SMILES): CC[C@H](C)[C@H](NC(=O)[C@H](CO)NC(=O)[C@H](CO)NC(=O)[C@H](CC(C)C)NC(=O)[C@@H](CCCCN)NC(=O)[C@H](CCCNC(=N)N)NC(=O)[C@H](CCCNC(=N)N)NC(=O)[C@@H](CCCNC(=N)N)NC(=O)[C@H](CCC(N)=O)NC(=O)[C@@H](CCCNC(=N)N)NC(=O)[C@H](CCCNC(=N)N)NC(=O)[C@H](CCCCN)NC(=O)[C@H](CCCCN)NC(=O)[C@@H](CCCNC(=N)N)NC(=O)CNC(=O)[C@@H](N)Cc1ccc(O)cc1)C(=O)N[C@@H](CCC(=O)O)C(=O)N[C@@H](CO)C(=O)N[C@@H](CC(=O)O)C(=O)N[C@H](C(=O)O)C(C)C [NoNO42] (HELM PEPTIDE1{Y.G.[dR].K.K.R.[dR].Q.[dR].R.R.[dK].L.S.S.I.E.S.D.V}$$$$V2.0; N-terminus and C-terminus assumed)
- renal biomarkers or electrolyte imbalance in comparison with nerinetide ([2]; rat, in vivo): No significant difference was observed
- Creatinine ([2]; rat, in vivo, iv, 3.8 mg/kg): 0.2 mg/dL
- iCa ([2]; rat, in vivo, iv, 5.7 mg/kg): 1.47 mmol/L
- Creatinine ([2]; rat, in vivo, iv, 7.6 mg/kg): 0.2 mg/dL
- tCO2 ([2]; rat, in vivo, iv, 7.6 mg/kg): 33.7 mmol/L
- Na+ ([2]; rats, IV 3.8 mg/kg, Day 4): 137.3 mmol/L
- Cl ([2]; rats, IV 3.8 mg/kg, Pre): 98.3 mmol/L
- iCa ([2]; rats, IV 3.8 mg/kg, Pre): 1.43 mmol/L
- Na+ ([2]; rats, IV 5.7 mg/kg, Day 4): 137.3 mmol/L
- iCa ([2]; rats, IV 5.7 mg/kg, Day 14): 1.46 mmol/L
- iCa ([2]; rats, IV 5.7 mg/kg, Pre): 1.46 mmol/L
- iCa ([2]; rats, IV 7.6 mg/kg, Day 4): 1.46 mmol/L
- tCO2 ([2]; rats, IV 7.6 mg/kg, Day 4): 35.7 mmol/L
- Cl ([2]; rats, IV 7.6 mg/kg, Day 14): 98.3 mmol/L
- Hgb ([2]; rats, IV 7.6 mg/kg, Day 14): 13.4 g/dL
- Na+ ([2]; rats, IV 7.6 mg/kg, Day 14): 137.3 mmol/L
- tCO2 ([2]; rats, IV 7.6 mg/kg, Day 14): 35.7 mmol/L
- remaining at 0.5 h, 65 ug/ml (plasmin): ~100%
- CMax of NoNO42 5.7 mg/kg versus nerinetide 7.6 mg/kg [3]: same CMax
- weight gain compared with nerinetide [4]: No significant difference was seen
- Weight ([4]; 3.8 mg/kg): 342.3 grams
- Weight ([4]; 5.7 mg/kg): 341.7 grams
- Weight ([4]; 7.6 mg/kg): 331.0 grams
